# Laboratory results taken from patent publication US20220016115A1, “USP19 INHIBITORS FOR USE IN THERAPY” (ALMAC DISCOVERY LIMITED, priority 2018, published 2022).
# Target: T1, USP19 (Homo sapiens, UniProt O94966)
# T1 sequence (O94966 1-1318): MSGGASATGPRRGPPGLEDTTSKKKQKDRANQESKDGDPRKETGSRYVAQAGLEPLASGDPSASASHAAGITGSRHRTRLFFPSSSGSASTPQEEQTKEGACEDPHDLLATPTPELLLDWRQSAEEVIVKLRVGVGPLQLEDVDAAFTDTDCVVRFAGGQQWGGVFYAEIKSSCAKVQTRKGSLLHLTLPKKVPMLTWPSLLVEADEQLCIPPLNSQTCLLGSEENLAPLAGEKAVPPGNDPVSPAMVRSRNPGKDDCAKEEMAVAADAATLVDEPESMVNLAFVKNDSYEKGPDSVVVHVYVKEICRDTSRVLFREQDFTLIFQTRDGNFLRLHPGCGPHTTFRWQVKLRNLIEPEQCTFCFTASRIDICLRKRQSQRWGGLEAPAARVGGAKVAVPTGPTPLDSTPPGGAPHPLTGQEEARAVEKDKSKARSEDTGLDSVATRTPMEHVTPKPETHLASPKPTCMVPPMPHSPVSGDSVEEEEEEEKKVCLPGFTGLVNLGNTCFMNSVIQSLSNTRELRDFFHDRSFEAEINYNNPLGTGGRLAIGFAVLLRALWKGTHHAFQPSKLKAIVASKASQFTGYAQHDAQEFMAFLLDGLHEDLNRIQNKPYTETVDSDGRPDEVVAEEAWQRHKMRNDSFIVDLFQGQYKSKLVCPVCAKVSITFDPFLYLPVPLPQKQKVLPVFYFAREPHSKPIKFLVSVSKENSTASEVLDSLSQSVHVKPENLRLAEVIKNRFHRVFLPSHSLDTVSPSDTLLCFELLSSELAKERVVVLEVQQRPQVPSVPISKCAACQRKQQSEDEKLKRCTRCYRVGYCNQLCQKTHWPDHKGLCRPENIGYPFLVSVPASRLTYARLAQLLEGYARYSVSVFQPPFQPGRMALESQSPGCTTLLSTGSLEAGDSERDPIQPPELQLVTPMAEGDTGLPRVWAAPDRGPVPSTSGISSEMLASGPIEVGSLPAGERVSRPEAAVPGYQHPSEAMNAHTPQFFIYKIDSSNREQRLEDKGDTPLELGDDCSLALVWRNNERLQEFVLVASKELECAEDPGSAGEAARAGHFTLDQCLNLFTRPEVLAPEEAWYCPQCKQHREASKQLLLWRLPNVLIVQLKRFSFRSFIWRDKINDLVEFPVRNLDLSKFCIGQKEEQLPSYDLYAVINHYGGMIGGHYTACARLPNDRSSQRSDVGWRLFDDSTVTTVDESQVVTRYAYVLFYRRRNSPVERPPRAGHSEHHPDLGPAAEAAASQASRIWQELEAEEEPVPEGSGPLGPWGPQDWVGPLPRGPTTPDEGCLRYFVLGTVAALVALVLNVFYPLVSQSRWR
# Assay: USP19 fluorescence polarisation (FP) homogeneous assay
# Type: biochemical
# Parameters: Full-length USP19 was purchased from Boston Biochem (E-576); purchased Boston Biochem E-576
# Details: Ubiquitin-Lys-TAMRA substrate, full-length USP19 2.5 nM, average of at least two duplicate experiments
# Method: Unless otherwise stated, all other reagents were purchased from Sigma. Enzymatic reactions were conducted in black flat bottom polystyrene 384-well plates (Nunc) and 30 μL total volume. […] Inhibitors were stored as 10 mM DMSO stocks in an inert environment (low humidity, dark, low oxygen, room temperature) using the Storage Pod System and serial dilutions were prepared in buffer just prior to the assay (from 200 μM to 2 μM, 8-18 data point curve). Following incubation at RT for 30 min, the enzymatic reactions were initiated by dispensing the Ub substrate (500 nM, 10 μL). FP was measured every 15 min over a period of 90 min (within the linear range of the assay) using a Synergy 4 plate reader (BioTek) exciting at 530 nm and measuring the amount of parallel and perpendicular light at 575 nm. The FP signal was subsequently normalised to the no compound control.
row,IC50 [nM],Compound
1,< 500,"C[C@H](CC1CCCCC1)C(=O)N1CC[C@@](O)(Cn2cc(C(=O)N(C)C)c(-c3ccccc3F)cc2=O)C(C)(C)C1 [Example 205, 1-(((S)-1-((R)-3-Cyclohexyl-2-methylpropanoyl)-4-hydroxy-3,3-dimethylpiperidin-4-yl)methyl)-4-(2-fluorophenyl)-N,N-dimethyl-6-oxo-1,6-dihydropyridine-3-carboxamide]"
2,< 500,"C[C@H](CC1CCCCC1)C(=O)N1CC[C@@](O)(Cn2cc(C(=O)N3CCNCC3)c(-c3ccccc3F)cc2=O)C(C)(C)C1 [Example 206, 1-(((S)-1-((R)-3-Cyclohexyl-2-methylpropanoyl)-4-hydroxy-3,3-dimethylpiperidin-4-yl)methyl)-4-(2-fluorophenyl)-5-(piperazine-1-carbonyl)pyridin-2(1 H)-one]"
3,< 500,"C[C@H](CC1CCCCC1)C(=O)N1CC[C@@](O)(Cn2cc(C(=O)N3CCNC[C@H]3CO)c(-c3ccccc3)cc2=O)C(C)(C)C1 [Example 208, 1-(((S)-1-((R)-3-Cyclohexyl-2-methylpropanoyl)-4-hydroxy-3,3-dimethylpiperidin-4-yl)methyl)-5-((S)-2-(hydroxymethyl)piperazine-1-carbonyl)-4-phenylpyridin-2(1H)-one]"
4,< 500,"C[C@H](CC1CCCCC1)C(=O)N1CC[C@@](O)(Cn2cc(C(=O)N(C)C)c(-c3ccccc3)cc2=O)C2(CCCC2)C1 [Example 211, 1-(((S)-7-((R)-3-Cyclohexyl-2-methylpropanoyl)-10-hydroxy-7-azaspiro[4.5]decan-10-yl)methyl)-N,N-dimethyl-6-oxo-4-phenyl-1,6-dihydropyridine-3-carboxamide]"
5,< 500,"C[C@@H]1CN(C(=O)c2cn(C[C@]3(O)CCN(C(=O)[C@H](C)CC4CCCCC4)CC3(C)C)c(=O)cc2-c2ccccc2)CCN1 [Example 213, 1-(((S)-1-((R)-3-Cyclohexyl-2-methylpropanoyl)-4-hydroxy-3,3-dimethylpiperidin-4-yl)methyl)-5-((R)-3-methylpiperazine-1-carbonyl)-4-phenylpyridin-2(1 H)-one]"
6,< 500,"C[C@H](CC1CCC1)C(=O)N1CC[C@@](O)(Cn2cc(C(=O)N(C)C)c(-c3ccccc3)cc2=O)C2(CCCC2)C1 [Example 214, 1-(((S)-7-((R)-3-Cyclobutyl-2-methylpropanoyl)-10-hydroxy-7-azaspiro[4.5]decan-10-yl)methyl)-N,N-dimethyl-6-oxo-4-phenyl-1,6-dihydropyridine-3-carboxamide]"
7,< 500,"C[C@H](CC1CCC1)C(=O)N1CC[C@@](O)(Cn2cc(C(=O)N3CCNCC3)c(-c3ccccc3)cc2=O)C2(CCCC2)C1 [Example 215, 1-(((S)-7-((R)-3-Cyclobutyl-2-methylpropanoyl)-10-hydroxy-7-azaspiro[4.5]decan-10-yl)methyl)-4-phenyl-5-(piperazine-1-carbonyl)pyridin-2(1H)-one]"
8,< 500,"C[C@H](CC(F)(F)F)C(=O)N1CC[C@@](O)(Cn2cc(C(=O)N(C)C)c(-c3ccccc3)cc2=O)C2(CCCC2)C1 [Example 216, 1-(((S)-10-Hydroxy-7-((R)-4,4,4-trifluoro-2-methylbutanoyl)-7-azaspiro[4.5]decan-10-yl)methyl)-N,N-dimethyl-6-oxo-4-phenyl-1,6-dihydropyridine-3-carboxamide]"
9,< 500,"C[C@H](CC(F)(F)F)C(=O)N1CC[C@@](O)(Cn2cc(C(=O)N3CCNCC3)c(-c3ccccc3)cc2=O)C2(CCCC2)C1 [Example 217, 1-(((S)-10-Hydroxy-7-((R)-4,4,4-trifluoro-2-methylbutanoyl)-7-azaspiro[4.5]decan-10-yl)methyl)-4-phenyl-5-(piperazine-1-carbonyl)pyridin-2(1H)-one]"
10,< 500,"C[C@H](CC1CCC1)C(=O)N1CC[C@@](O)(Cn2cc(C(=O)N(C)C)c(-c3ccccc3F)cc2=O)C2(CCCC2)C1 [Example 222, 1-(((S)-7-((R)-3-Cyclobutyl-2-methylpropanoyl)-10-hydroxy-7-azaspiro[4.5]decan-10-yl)methyl)-4-(2-fluorophenyl)-N,N-dimethyl-6-oxo-1,6-dihydropyridine-3-carboxamide]"
11,< 500,"C[C@H](CC1CCC1)C(=O)N1CC[C@@](O)(Cn2cc(C(=O)N3CCNCC3)c(-c3ccccc3F)cc2=O)C2(CCCC2)C1 [Example 224, 1-(((S)-7-((R)-3-Cyclobutyl-2-methylpropanoyl)-10-hydroxy-7-azaspiro[4.5]decan-10-yl)methyl)-4-(2-fluorophenyl)-5-(piperazine-1-carbonyl)pyridin-2(1 H)-one]"
12,< 500,"C[C@H](CC1CCCCC1)C(=O)N1CC[C@@](O)(Cn2cc(C(=O)N(C)C)c(-c3ccccc3F)cc2=O)C2(CCCC2)C1 [Example 226, 1-(((S)-7-((R)-3-Cyclohexyl-2-methylpropanoyl)-10-hydroxy-7-azaspiro[4.5]decan-10-yl)methyl)-4-(2-fluorophenyl)-N,N-dimethyl-6-oxo-1,6-dihydropyridine-3-carboxamide]"
13,< 500,"C[C@H](CC1CCCCC1)C(=O)N1CC[C@@](O)(Cn2cc(C(=O)N3CCNCC3)c(-c3ccccc3F)cc2=O)C2(CCCC2)C1 [Example 227, 1-(((S)-7-((R)-3-Cyclohexyl-2-methylpropanoyl)-10-hydroxy-7-azaspiro[4.5]decan-10-yl)methyl)-4-(2-fluorophenyl)-5-(piperazine-1-carbonyl)pyridin-2(1 H)-one]"
14,< 500,"C[C@H](CC1CCCCC1)C(=O)N1CC[C@@](O)(Cn2cc(C(=O)N3CCC(O)CC3)c(-c3ccccc3)cc2=O)C(C)(C)C1 [Example 228, 1-(((S)-1-((R)-3-Cyclohexyl-2-methylpropanoyl)-4-hydroxy-3,3-dimethylpiperidin-4-yl)methyl)-5-(4-hydroxypiperidine-1-carbonyl)-4-phenylpyridin-2(1 H)-one]"
15,< 500,"C[C@H](CC1CCCCC1)C(=O)N1CC[C@@](O)(Cn2cc(C(=O)N(C)C)c(C3CC3)cc2=O)C2(CCCC2)C1 [Example 232, 1-(((S)-7-((R)-3-Cyclohexyl-2-methylpropanoyl)-10-hydroxy-7-azaspiro[4.5]decan-10-yl)methyl)-4-cyclopropyl-N,N-dimethyl-6-oxo-1,6-dihydropyridine-3-carboxamide]"
16,< 500,"C[C@H](CC1CCCCC1)C(=O)N1CC[C@@](O)(Cn2cc(C(=O)N3CCNCC3)c(C3CC3)cc2=O)C2(CCCC2)C1 [Example 233, 1-(((S)-7-((R)-3-Cyclohexyl-2-methylpropanoyl)-10-hydroxy-7-azaspiro[4.5]decan-10-yl)methyl)-4-cyclopropyl-5-(piperazine-1-carbonyl)pyridin-2(1H)-one]"
17,< 500,"C[C@H](CC1CCC1)C(=O)N1CC[C@@](O)(Cn2cc(C(=O)N3CCNCC3)c(-c3ccccc3F)cc2=O)C(C)(C)C1 [Example 236, 1-(((S)-1-((R)-3-Cyclobutyl-2-methylpropanoyl)-4-hydroxy-3,3-dimethylpiperidin-4-yl)methyl)-4-(2-fluorophenyl)-5-(piperazine-1-carbonyl)pyridin-2(1 H)-one]"

row,Compound,IC50 [nM]
1,"C[C@H](CC1CCCCC1)C(=O)N1CC[C@@](O)(Cn2cc(C(=O)N3CCNCC3)c(-c3ccccc3)cc2=O)C2(CCCC2)C1 [Example 212, 1-(((S)-7-((R)-3-Cyclohexyl-2-methylpropanoyl)-10-hydroxy-7-azaspiro[4.5]decan-10-yl)methyl)-4-phenyl-5-(piperazine-1-carbonyl)pyridin-2(1H)-one]",< 500
